Test results as given in patent US11168059B2, “Amino sulfonyl compounds” (CV6 Therapeutics (NI) Limited, priority 2016, dated 2021).

The molecules below were run against T1, recombinant human deoxyuridine nucleotidohydrolase (dUTPase) (Homo sapiens, UniProt P33316) (assay: dUTPase inhibition, fluorescence-based DNA polymerase assay). Details: not given.
T1 construct: made in house
T1 sequence (P33316 1-164 isoform P33316-2): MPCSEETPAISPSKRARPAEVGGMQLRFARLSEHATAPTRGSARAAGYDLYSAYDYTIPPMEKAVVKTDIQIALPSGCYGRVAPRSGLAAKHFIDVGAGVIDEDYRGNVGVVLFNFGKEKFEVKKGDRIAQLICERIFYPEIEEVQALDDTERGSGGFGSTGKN
Format: biochemical
From the text: Recombinant human deoxyuridine nucleotidohydrolase (dUTPase) is expressed and purified as described in Ladner R D, Carr S A, Huddleston M J, McNulty D E, Caradonna S J. J Biol Chem. 1996 Mar. 29; 271(13):7752-7. All drugs stocks are aliquoted and diluted as appropriate prior to use. The oligonucelotide primer, templates and fluorophore- and quencher-labeled detection probes are synthesized by Integrated DNA Technologies (Coralville, Iowa), subjected to polyacrylamide gel electrophoresis purification and reconstituted in Omnipur sterile nuclease-free water (EMD Chemicals USA, Gibbstown N.J.) at a stock concentration of 100 μmol/L. The two non-emissive (dark) quenching molecules incorporated into the detection probes include the Iowa black fluorescein quencher (IBFQ; absorption max 531 nm) and ZEN (non-abbreviation; absorption max 532 nm). The fluorescent label utilized is 6-FAM (5′-carboxyfluorescein; excitation max.=494 nm, emission max.=520 nm). Probes are further diluted to a working stock of 10 μmol/L and aliquoted to avoid repeated freeze/thaw cycles. AmpliTaq Gold DNA Polymerase, GeneAmp 10×PCR Buffer 2, MgCl2 and MicroAmp Optical 96-well Reaction Plates are purchased from Applied Biosystems (Carlsbad, Calif.). dNTPs are purchased individually at stock concentrations of 100 mmol/L from New England Biolabs at HPLC-certified >99% purity (Ipswich, Mass.).
Reaction mixtures contained primer, probe and template at an equimolar final concentration of 0.4 μmol/L. Magnesium chloride (MgCl2) is included at a final concentration of 2 mmol/L. Non-limiting dNTPs are included in the reaction mix in excess at a final concentration of 100 μmol/L (dUTP/dTTP is excluded). AmpliTaq Gold DNA polymerase is added at 0.875 U/reaction, 2.5 μl of 10×PCR buffer 2 added and nuclease-free ddH2O added to a final reaction volume of 25 μl. For dUTP inhibition analysis, the volume of ddH2O is further modified to accommodate an additional 1 μl of dUTPase (10 ng/μl) and 1 μl of inhibitor or DMSO control. Thermal profiling and fluorescence detection is performed using a customized thermal program on board a Roche Lightcycler LC480 Instrument II. For analysis of dNTPs, the thermal profile consisted of an 8 min 37° C. step followed by a 10 min 95° C. step to ‘hot-start’ the Taq polymerase and a primer extension time of up to 30 min at 60° C. Raw fluorescence spectra for 6-FAM is measured at specified time intervals to follow assay progression on board a Roche LightCycler 480 Software Version 1.5 and exported and analyzed in Microsoft Excel (Microsoft, Redmond Wash.) and Prism (GraphPad Software, La Jolla Calif.). Fluorescence values for blank reactions (limiting dNTP omitted) are subtracted to give normalized fluorescence units (NFU) to account for background fluorescence.
Test compounds are screened in a fluorescence-based assay. The assay employs a DNA polymerase-based approach utilizing an oligonucleotide template with 3 distinct regions: a 3′ primer binding region, a mid-template dUTP/thymidine triphosphate (TTP) detection region and a 5′ 6-[…] (FAM)-labeled probe binding region that incorporates a black hole quenching moiety. During the reaction, the probe and primer hybridize to the oligonucleotide template to form the template:primer:probe complex. When Taq polymerase binds to the primer in the TPP complex and dUTP is present, successful extension of the nascent strand occurs and the inherent 5′ to 3′ exonuclease activity of Taq polymerase cleaves and displaces the 6-FAM-labeled probe in a 5′ to 3′ direction, releasing the 6-FAM fluorophore from its proximity to the […]. This displacement effectively disrupts the Forster resonance energy transfer (FRET) and the resulting fluorescence detected upon excitation is directly proportional to the amount of the dUTP available in the assay for incorporation. […]

| Compound | IC50 [nM] |
| --- | --- |
| O=C1CN(Cc2ccc(CNS(=O)(=O)c3cccc(OC4CCCC4)c3)cc2)C(=O)N1 [Example 40, 3-(cyclopentyloxy)-N-(4-((2,4-dioxoimidazolidin-1-yl)methyl)benzyl)benzenesulfonamide] | 1400 |
| CC(C)(NS(=O)(=O)c1cccc(OC2CCCC2)c1)c1ccc(CN2CC(=O)NC2=O)cc1 [Example 41, 3-(cyclopentyloxy)-N-(2-(4-((2,4-dioxoimidazolidin-1-yl)methyl)phenyl)propan-2-yl)benzenesulfonamide] | 300 |

Same assay, conditions: mean over three concentrations, typically 100, 50 and 25 μmol/L, relative to in-run positive control

| Compound | % relative inhibition vs. positive control [%] |
| --- | --- |
| CC(C)COc1cc(S(=O)(=O)NCCCCCCN2CC(=O)NC2=O)ccc1F [Compound 45b, N-(6-(2,4-dioxoimidazolidin-1-yl)hexyl)-4-fluoro-3-isobutoxybenzenesulfonamide] | 151 |
| O=C1CCN(C/C=C/CCCNS(=O)(=O)c2ccc(F)c(OCC3CC3)c2)C(=O)N1 [Compound 49a, (E)-3-(cyclopropylmethoxy)-N-(6-(2,4-dioxotetrahydropyrimidin-1(2H)-yl)hex-4-en-1-yl)-4-fluorobenzenesulfonamide] | 151 |
| CC(C)COc1cc(S(=O)(=O)NCCC/C=C/CN2CC(=O)NC2=O)ccc1F [Compound 45a, (E)-N-(6-(2,4-dioxoimidazolidin-1-yl)hex-4-en-1-yl)-4-fluoro-3-isobutoxybenzenesulfonamide] | 178 |
| CC(C)COc1cc(S(=O)(=O)NCCCCCCN2CCC(=O)NC2=O)ccc1F [Compound 50b, N-(6-(2,4-dioxotetrahydropyrimidin-1(2H)-yl)hexyl)-4-fluoro-3-isobutoxybenzenesulfonamide] | 141 |
| CC(C)COc1cc(S(=O)(=O)NCCC/C=C/CN2CCC(=O)NC2=O)ccc1F [Compound 50a, (E)-N-(6-(2,4-dioxotetrahydropyrimidin-1(2H)-yl)hex-4-en-1-yl)-4-fluoro-3-isobutoxybenzenesulfonamide] | 156 |
| O=C1CCN(CCCOCCNS(=O)(=O)c2cccc(OCC3CC3)c2)C(=O)N1 [Example 48, 3-(cyclopropylmethoxy)-N-(2-(3-(2,4-dioxotetrahydropyrimidin-1(2H)-yl)propoxy)ethyl)benzenesulfonamide] | 82 |
| O=C1CN(Cc2ccc(CNS(=O)(=O)c3cccc(OC4CCCC4)c3)cc2)C(=O)N1 [Example 40, 3-(cyclopentyloxy)-N-(4-((2,4-dioxoimidazolidin-1-yl)methyl)benzyl)benzenesulfonamide] | 53 |
| O=C1CN(CCOCCCNS(=O)(=O)c2cccc(OCC3CC3)c2)C(=O)N1 [Example 42, 3-(cyclopropylmethoxy)-N-(3-(2-(2,4-dioxoimidazolidin-1-yl)ethoxy)propyl)benzenesulfonamide] | 136 |
| CC(C)(NS(=O)(=O)c1cccc(OC2CCCC2)c1)c1ccc(CN2CC(=O)NC2=O)cc1 [Example 41, 3-(cyclopentyloxy)-N-(2-(4-((2,4-dioxoimidazolidin-1-yl)methyl)phenyl)propan-2-yl)benzenesulfonamide] | 249 |
| O=C1CN(C/C=C/CCCNS(=O)(=O)c2cccc(OCC3CC3)c2)C(=O)N1 [Compound 44a, (E)-3-(cyclopropylmethoxy)-N-(6-(2,4-dioxoimidazolidin-1-yl)hex-4-en-1-yl)benzenesulfonamide] | 159 |
| O=C1CN(CCCCCCNS(=O)(=O)c2ccc(F)c(OCC3CC3)c2)C(=O)N1 [Compound 44b, 3-(cyclopropylmethoxy)-N-(6-(2,4-dioxoimidazolidin-1-yl)hexyl)-4-fluorobenzenesulfonamide] | 168 |
| O=C1CCN(C/C=C/CCCNS(=O)(=O)c2ccc(F)c(OCC3CC3)c2)C(=O)N1 [Compound 49b, (E)-3-(cyclopropylmethoxy)-N-(6-(2,4-dioxotetrahydropyrimidin-1(2H)-yl)hex-4-en-1-yl)-4-fluorobenzenesulfonamide] | 144 |
| O=C1CCN(CCOCCCNS(=O)(=O)c2cccc(OCC3CC3)c2)C(=O)N1 [Example 47, 3-(cyclopropylmethoxy)-N-(3-(2-(2,4-dioxotetrahydropyrimidin-1(2H)-yl)ethoxy)propyl) benzenesulfonamide] | 8 |

The molecules below were run on colorectal (HCT 116 and SW620) cell line models (assay: MTS growth inhibition assay). Details: 5-FU between 0 and 100 μmol/L; both colorectal cancer cell lines.
Format: cell-based
Method: The Cell Titer AQueous MTS assay (Promega) is carried out according to the manufacturers guidelines. […] The combination effect is determined by the combination index (CI) method utilizing Calcusyn software (Biosoft, Ferguson, Mo.). […] CI values <1, synergism; 1-1.2, additive and >1.2, antagonism.
Test compounds are evaluated for their antitumor activity in colorectal cancer cells using the MTS growth inhibition assay. HCT116 and SW620 cells are exposed to increasing concentrations of each agent for 72 hours and growth inhibition is directly compared to vehicle-treated controls. The NSCLC cell lines A549 and H1299 are exposed to increasing concentrations of each agent for 72 hours and growth inhibition is directly compared to vehicle-treated controls.
Simultaneous treatment with increasing concentrations of 5-FU and a test compound at fixed concentrations of 25 μmol/L is determined.

| Compound | growth inhibition |
| --- | --- |
| O=c1[nH]cc(F)c(=O)[nH]1 [Example 5-FU, 5-fluorouracil] | dose-dependent increases in growth inhibition |

Each molecule was assayed on colorectal (HCT116), breast (MCF-7) and non-small cell lung (H1299, A549, H358 and H460) cell line models (assay: Colony forming assay). Details: FUdR between 0.5 and 2.5 μmol/L; all cell lines evaluated.
Format: cell-based
Method: Colony forming assay showing the ability of colon (SW620, HCT116), non-small cell lung (A549, H460, H1299 and H358) and breast (MCF7) cancer cells to survive and proliferate following transient 24 hour exposure to test compounds, FUdR and combinations are determined. Specifically, cells are seeded at densities between 50 and 100 cells/well in 24-well plates. Twenty-four hours later, cells are treated with increasing concentrations of a rtest compound, a fixed dose of FUdR and combinations of these. After 24 hours, drug is removed, cells are rinsed and allowed to outgrow for 10-14 days. At the conclusion of the outgrowth, cells are fixed in 60% ice cold methanol and stained with 0.1% crystal violet, scanned and counted. Data is presented as percentage of untreated controls (mean±SD). Fraction affected and combination indexes are calculated according to the method of Chou and Talalay where <1 is indicative of a synergistic drug interaction.
Colony forming assays are performed to evaluate the effectiveness of test compounds alone and in combination with the fluoropyrimidine thymidylate synthase (TS) inhibitor fluorodeoxyuridine (FUdR) at reducing cancer cell viability in colorectal (HCT116), breast (MCF-7) and non-small cell lung (H1299, A549, H358 and H460) cell line models. […]

| Compound | colonies formed |
| --- | --- |
| O=c1[nH]c(=O)n([C@H]2C[C@H](O)[C@@H](CO)O2)cc1F [FUdR, fluorodeoxyuridine] | dose-dependent decreases in colonies formed |
